From patent US20130231472A1, “USE OF MOLECULAR MARKERS FOR THE PRECLINICAL PROFILING OF INHIBITORS OF ENZYMES HAVING HISTONE DEACETYLASE ACTIVITY” (priority 2002, published 2013)

Tests used:
leukemic spleens = experiment: Apoptosis in leukemic spleens after in vivo treatment (TUNEL assay); design: species or system mice; settings: VPA 400 mg/kg every 12 hours, 48 hours; FIG. 3A
Procedure: (§1) FIG. 3: (A) Secondary acute promyelocytic leukemias were induced in mice as described above. Leukemic mice were then treated with placebo (Ctrl), or VPA (400 mg/kg every 12 hours). Mice were sacrificed 48 hours after beginning of treatments, and then leukemic spleens were fixed and either stained for histological examination (hematoxylin-eosyn, left panels), or analyzed for the presence of apoptotic cells (TUNEL assay, right panels). (B) Secondary leukemias were obtained as above. Mice were sacrificed when leukemic invasion of peripheral organs was >75% (spleen). Splenocytes from healthy mice (taken as control, left panel), or from leukemic mice (>75% blasts, right panel) were put in culture and then treated with VPA (1 mM) for 48 hours. At the end of the treatment, apoptosis was measured by propidium iodide staining. The sub-G1 area indicates the hypodiploid DNA peak corresponding to cells with fragmented DNA undergoing apoptosis.

[1] = test system: splenocytes from leukemic mice (>75% blasts); experiment: Apoptosis of cultured leukemic splenocytes/APL blasts (propidium iodide staining); assay type: cell-based; settings: VPA 1 mM, 48 hours, FIG. 3B
Procedure: as §1
FIG. 5: Leukemic blasts were obtained from spleens of secondary leukemic mice with a >75% invasion of tumor cells, as assessed by histological examination. Cells were put in culture and treated with VPA (1 mM) for 48 hours, in the absence or in the presence of the indicated TRAIL and/or caspase 8 inhibitors as indicated. At the end of the treatment, apoptosis was measured as described above.

TRAIL = TRAIL expression in spleen after in vivo treatment (RNAse protection assay); design: species or system mice; settings: VPA 400 mg/kg every 12 hours, FIG. 4A
Procedure: Leukemic mice or healthy mice (Ctrl) were then treated with placebo (lanes 1, 3), VPA (400 mg/kg every 12 hours), all-trans retinoic acid (a 21-day-release pellet containing 5 mg RA or placebo: lanes 8-9), and VPA plus retinoic acid (lanes 10-11). Mice were sacrificed 18 hours (lanes 4-5), or 36 hours after beginning of treatment (lanes 3, 6-7, 10-11): total RNAs were collected from the spleens (with a >75% invasion of leukemic blasts as assessed by Giemsa staining) and analyzed by RNAse protection assay to check for expression of TRAIL.

HDAC-2 [2] = experiment: HDAC-2 protein levels in HEK293T cells (Westernblot); assay type: cell-based, human
Procedure: (§2) FIG. 6: (A) F9 teratocarcinoma or HEK293T embryonic kidney cells were exposed for indicated times to 1 mM VPA. Protein levels of HDAC-2 and HDACs 1 or 3 for reference (HDAC8; N-CoR and Sin3 as data not shown) were determined by Westernblot analysis. […] (C) The effect of other HDAC inhibitors on the amount of HDAC-2 protein was determined by using TSA (100 nM) in a time course analysis in F9 cells (left panel). The HDAC inhibitors TSA (100 nM), trapoxin (TPX, 10 nM), butyrate (1.5 mM) or MS275 (5 μM) were tested at a single time of exposure in HEK293T cells (right panel).
FIG. 9: (A) HEK293T cells were treated for 24 h with VPA or left untreated. The cell penetrating protease inhibitors pepstatin A, leupeptin, or ALLM were added as indicated at the time of VPA addition. (B) Proteasome inhibitors ALLN or MG-132 were added at the indicated concentrations 4 h before cells were harvested. Protein levels of HDAC-2 were determined by Westernblot analysis.

HDAC-2 [3] = experiment: HDAC-2 protein levels in K562 leukemia cells; assay type: cell-based, human
HDAC-2 [4] = experiment: HDAC-2 protein levels in NIH3T3 cells; assay type: cell-based, mouse
HDAC-1 = HDAC-1 protein levels (Westernblot, reference); assay type: cell-based; settings: 1 mM VPA; FIG. 6A; in some experiments a transient induction
Procedure: as §2

HDAC-2 mRNA = HDAC-2 mRNA levels in F9 cells (Northern blot); assay type: cell-based, murine; settings: 1 mM VPA, FIG. 7
Procedure: FIG. 7: F9 cells or HEK 293T cells were treated for indicated times with 1 mM VPA and the levels of HDAC-2 mRNA were determined by Northern blot analysis from 5 μg polyA^+ RNA.

HDAC-3 = HDAC-3 pulse-chase analysis in HEK293T cells; assay type: cell-based, human; settings: VPA pretreatment, FIG. 8B
Procedure: FIG. 8: Synthesis and degradation rate of HDAC-2 were analyzed by pulse metabolic labeling with ^35S-methionine and pulse-chase analyses. ^35S-labelled HDAC-2 was detected by HDAC-2 specific immune precipitation followed by SDS-PAGE separation and autoradiography. (A) Pulse labeling for 1 h was performed in F9 and HEK293T cells which had been left untreated or were pretreated with 1 mM VPA for 24 h. (B) For pulse chase analysis cells were left untreated or pretreated for 24 h with 1 mM VPA and labeled with ^35S-methionine for an additional hour in the absence or presence of VPA. After removal of ^35S-methionine and addition of non-labeled methionine the elimination of radiolabeled HDAC-2 was followed over a period of 6 h. A pulse chase analysis was also performed in HEK293T cells without VPA pretreatment and addition of VPA (indicated by the (+) row) only at the time when the chase period was started. From HEK293T cell extracts also HDAC-3 was precipitated for reference.

HDAC-2 [5] = experiment: Ubiquitinated proteins in anti HDAC-2 immune precipitates (Westernblot against ubiquitin); assay type: cell-based; settings: FIG. 10A
Description: FIG. 10: (A) The total amount of high molecular weight poly-ubiquitinated protein was not altered by VPA treatment of cells (left two lanes). The presence of ubiquitinated proteins in anti HDAC-2 immune precipitates is shown in the right part of the panel. […] Ubiquitinated proteins in the precipitates were detected by Western blot analysis. For lane N a non-immune serum was used instead of the anti HDAC-2 antibody. (B) The presence of mono- and/or oligo-ubiquitinated HDAC-2 upon VPA treatment of HEK293T cells was determined by ectopic expression of His6-tagged ubiquitin followed by VPA-treatment for 36 h as indicated. The proteasome inhibitor MG-132 was added 4 h prior to analysis to enhance the accumulation of ubiquitinated proteins. Electrophoretic mobility and unaltered presence of non-ubiquitinated HDAC-2 were determined by Westernblot analysis of whole cell extracts (left panel). […] Anti-HDAC-2 immuno-reactive bands with the expected mobility of mono- or poly-ubiquitinated HDAC-2 are indicated by a bracket.

CCCC(CCC)C(=O)O [VPA, Valproic acid]
apoptotic cells in leukemic spleens (TUNEL) (leukemic spleens): induces massive apoptosis within leukemic spleens
apoptosis (propidium iodide, sub-G1) [1]: induces massive apoptosis of leukemic cells
TRAIL expression in spleen (TRAIL; healthy mice): did not cause induction of TRAIL expression
TRAIL expression in spleen (TRAIL; leukemic mice, 18 or 36 hours): induced TRAIL for the entire duration of treatment
HDAC-2 protein levels (HDAC-2 [2]; HEK293T cells, VPA 1 mM, TSA 100 nM, trapoxin 10 nM, butyrate 1.5 mM, MS275 5 μM): reduced
HDAC-2 protein levels at higher doses (HDAC-2 [2]; HEK 293T, VPA concentrations increased up to 5 or 10 mM, 36 h, FIG. 6B): slightly more pronounced reduction
HDAC-2 protein levels (HDAC-2 [3]): reduced
HDAC-2 protein levels (HDAC-2 [4]): reduced
HDAC-1 protein levels (HDAC-1): not reduced
HDAC-2 mRNA levels (HDAC-2 mRNA): no response of HDAC-2 mRNA levels
degradation of HDAC-3 (pulse-chase) (HDAC-3): not affected
amount of ubiquitinated protein precipitated with antibody against HDAC-2 (HDAC-2 [5]; VPA 1.5 mM, 24 h, ALLN 5 μM): increase the amount of this anti-ubiquitin reactive protein
overall amount of cellular ubiquitinated proteins (HDAC-2 [5]; VPA treatment): moderately reduced
